Literature values, collected in patent US6482832B1, “Heterocyclically substituted amides, their production and their use” (Abbott Laboratories, priority 1998, dated 2002).
Read-outs that look alike come from different tables or passages of the source.

Legend:
[1] = tested on: calpain
[2] = tested on: cells; conditions: surmount the cell membrane only with difficulty
[3] = tested on: calpain-mediated cleavage of pp60src in platelets; conditions: activated platelets; Oda et al., J. Biol. Chem. 1993

Row | Compound | calpain inhibition ([1]; known calpain inhibitors) | effect on cells [2] | cleavage of pp60src [3] | calpain inhibition ([1]; M. R. Angelastro et al., J. Med. Chem. 1990, 33, 11-13)
1 | CC(C)C[C@H](NC(=O)[C@H]1O[C@@H]1C(=O)O)C(=O)NCCCCN=C(N)N [E 64] | good calpain inhibitors | poor effect on cells | – | –
2 | CCCC[C@@H](C=O)NC(=O)[C@H](CC(C)C)NC(=O)OCc1ccccc1 [calpeptin] | – | – | can prevent the cleavage of pp60src | –
3 | CC(=O)N[C@@H](CC(C)C)C(=O)N[C@@H](CC(C)C)C(=O)N[C@H](C=O)CCCNC(=N)N [leupeptin] | good calpain inhibitors | poor effect on cells | – | –
4 | Ph—CONH—CH(CH2Ph)—CO—COCOOCH3 | – | – | – | only a weak calpain inhibitor
